# pKd: −log10 of the molar value. Residues, ends and D or L forms follow the SMILES beside them.
# Columns and labels:
# [1] = biological target: T1, human serum albumin (HSA) (Homo sapiens, UniProt P02768); experiment: Fluorescence titration method, Kd between HSA and peptide; format: binding; details: solution in ultrapure water: ACTH partial peptide 34 μM, TMR-ACTH partial peptide 6 μM, HSA 600 μM
# T1 construct: purchased Sigma-Aldrich Japan Inc
# Source text: The ACTH is a basic peptide. The used albumin was human serum albumin (HSA, Sigma-Aldrich Japan Inc.).
# [2] = biological target: T2, bovine serum albumin (BSA) (Bos taurus, UniProt P02769); experiment: Fluorescence titration method, Kd between BSA and peptide; format: binding
# T2 construct: purchased Sigma-Aldrich Japan Inc
# T2 sequence (P02769 25-607): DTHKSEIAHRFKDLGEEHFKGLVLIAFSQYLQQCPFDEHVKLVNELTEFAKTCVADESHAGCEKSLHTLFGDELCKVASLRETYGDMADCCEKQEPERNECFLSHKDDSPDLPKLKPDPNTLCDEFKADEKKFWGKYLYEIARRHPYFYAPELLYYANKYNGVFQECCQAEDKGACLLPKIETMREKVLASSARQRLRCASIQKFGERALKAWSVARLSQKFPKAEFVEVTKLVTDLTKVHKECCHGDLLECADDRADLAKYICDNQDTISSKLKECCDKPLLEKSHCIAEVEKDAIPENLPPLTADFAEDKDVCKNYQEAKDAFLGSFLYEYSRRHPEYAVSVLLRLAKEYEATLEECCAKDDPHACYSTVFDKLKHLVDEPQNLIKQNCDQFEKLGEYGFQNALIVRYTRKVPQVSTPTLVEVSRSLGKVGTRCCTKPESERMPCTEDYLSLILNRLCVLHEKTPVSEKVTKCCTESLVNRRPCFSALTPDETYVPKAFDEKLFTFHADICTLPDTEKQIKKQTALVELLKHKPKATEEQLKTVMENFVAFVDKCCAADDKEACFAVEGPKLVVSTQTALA
# Source text: FITC-SA21 (Biologica Co, Ltd.) in which SA21 consisting of 18 amino acids was labeled with fluorescein isothiocyanate (FITC) (a green fluorescent dye) was used as a peptide. The SA21 is an acidic peptide. The used albumin was BSA (Sigma-Aldrich Japan Inc.).
# T1 sequence (P02768 25-609): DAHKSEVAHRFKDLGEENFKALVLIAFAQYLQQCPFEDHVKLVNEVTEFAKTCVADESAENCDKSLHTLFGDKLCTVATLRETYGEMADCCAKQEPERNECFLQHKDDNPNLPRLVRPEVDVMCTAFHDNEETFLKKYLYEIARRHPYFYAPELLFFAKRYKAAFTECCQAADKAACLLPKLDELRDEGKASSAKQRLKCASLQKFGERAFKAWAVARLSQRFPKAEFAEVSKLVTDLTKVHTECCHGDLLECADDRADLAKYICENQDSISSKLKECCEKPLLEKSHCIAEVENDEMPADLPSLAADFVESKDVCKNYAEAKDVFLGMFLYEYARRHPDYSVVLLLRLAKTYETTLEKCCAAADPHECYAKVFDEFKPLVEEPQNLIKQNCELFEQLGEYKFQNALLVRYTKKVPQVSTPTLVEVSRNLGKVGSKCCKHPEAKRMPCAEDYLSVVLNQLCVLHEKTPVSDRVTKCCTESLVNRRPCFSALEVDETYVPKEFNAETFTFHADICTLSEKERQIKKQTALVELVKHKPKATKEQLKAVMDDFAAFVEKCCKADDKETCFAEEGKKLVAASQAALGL
SMILES,fraction of peptide forming a complex with the HSA [1],"pKd ([2]; fluorescence titration, read-out: Kd value between the BSA and FITC-SA21)","fraction of FITC-SA21 forming a complex with albumin ([2]; solution in ultrapure water: FITC-SA21 43 (M, BSA 100 (M)), printed as complex with the HSA)",affinity of binding to BSA relative to affinity of binding between the HSA and ACTH partial peptide ([2]; times stronger than HSA/ACTH partial peptide binding)
CSCC[C@H](NC(=O)[C@H](CO)NC(=O)[C@H](Cc1ccc(O)cc1)NC(=O)[C@H](CO)NC(=O)c1ccc2c(c1)C(=O)OC21c2ccc(N(C)C)cc2Oc2cc(N(C)C)ccc21)C(=O)N[C@@H](CCC(=O)O)C(=O)N[C@@H](Cc1c[nH]cn1)C(=O)N[C@@H](Cc1ccccc1)C(=O)N[C@@H](CCCNC(=N)N)C(=O)N[C@@H](Cc1c[nH]c2ccccc12)C(=O)NCC(=O)N[C@@H](CCCCN)C(=O)N1CCC[C@H]1C(=O)N[C@H](C(=O)NCC(=O)N[C@@H](CCCCN)C(=O)N[C@@H](CCCCN)C(=O)N[C@@H](CCCNC(=N)N)C(=O)N[C@@H](CCCNC(=N)N)C(=O)N1CCC[C@H]1C(=O)N[C@H](C(=O)N[C@@H](CCCCN)C(=O)N[C@H](C(=O)N[C@@H](Cc1ccc(O)cc1)C(=O)N1CCC[C@H]1C(=O)O)C(C)C)C(C)C)C(C)C [TMR-ACTH partial peptide],98.9%,,,
"CC[C@H](C)[C@H](NC(=O)[C@H](CC(C)C)NC(=O)[C@H](CCCNC(=N)N)NC(=S)Nc1ccc2c(c1)C(=O)OC21c2ccc(O)cc2Oc2cc(O)ccc21)C(=O)N[C@@H](CCC(=O)O)C(=O)N[C@@H](CC(=O)O)C(=O)N[C@H](C(=O)N[C@H]1CSSC[C@@H](C(=O)N[C@@H](CC(C)C)C(=O)N[C@@H](Cc2c[nH]c3ccccc23)C(=O)N[C@@H](CCC(=O)O)C(=O)N[C@@H](CC(=O)O)C(=O)N[C@@H](CC(=O)O)C(N)=O)NC(=O)CNC(=O)[C@H](Cc2c[nH]c3ccccc23)NC(=O)[C@H](CCCNC(=N)N)NC(=O)[C@@H]2CCCN2C(=O)[C@H](CC(C)C)NC1=O)[C@@H](C)CC [FITC-SA21] (HELM PEPTIDE1{[O=C1OC2(c3ccc(O)cc3Oc3cc(O)ccc32)c2ccc(NC(=S)[*:2])cc21].R.L.I.E.D.I.C.L.P.R.W.G.C.L.W.E.D.D.[am]}$PEPTIDE1,PEPTIDE1,8:R3-14:R3$$$V2.0; N-terminus and C-terminus assumed)",,≥ 6.00,98.3%,6 times
